“Also recorded” adds a separate entry of the source. Ends that are not written are not given here.
Assays:
22RV1 / PC-3 = conditions: endogenous; ref [9] (supplement list); cited from earlier work
Description: (§1) Supplement pone.0146846.s004.docx, table 1 | column: Functional assay

hC6A = conditions: ref [9] (supplement list); cited from earlier work
Description: as §1

MIN6 cells = assay: Insulin release from MIN6 cells; type: cell-based, murine; conditions: 16.7 mM glucose; P < 0.0001, two-way ANOVA; Fig 6B
Experimental: (§2) MIN6 or βTC-6 cells were seeded in 24-well plates at 170,000 cells per well in DMEM (containing 4.5g/L glucose, 10 mM HEPES, 100 U/ml penicillin, 100 μg/ml streptomycin and 15% de-complemented FBS) and incubated at 37°C / 5% CO2 for 72 h. Cells were then washed with 500 μl PBS and incubated in 500 μl deprivation media (DMEM with zero glucose, 10 mM HEPES, 1 mM Na-pyruvate, 100 U/ml penicillin, 100 μg/ml streptomycin, 15% de-complemented FBS) for 2 h at 37°C. Media was aspirated and after washing with 500 μl PBS, cells were treated with 250 μl of Krebs buffer (250 mM NaCl, 5.9 mM KCl, 1.2 mM MgCl2, 1.3 mM CaCl2, 25 mM HEPES, 0.1% BSA (w/v), and 2 mM or 16.7 mM glucose; pH 7.4) in the presence or absence of test compound. After incubation for 2 h at 37°C, the assay was terminated by placing the plates on ice and supernatants were transferred to a 96-well plate in preparation for insulin ELISA (Alpco) following manufacturer’s instructions. The cell monolayer was washed twice with 500 μl of PBS and then lysed using 250 μl of 1 N NaOH prior to protein measurement by the method of Bradford (1976).
(§3) Concentration-response data were analysed using a three or four parameter logistic function (Motulsky & Christopoulos, 2004) to generate estimates of agonist potency (LogEC50). Data for all HEK293 assays represent the mean ± SEM of at least three independent experiments (except cell impedance, n = 2). For GLP-1 release, the data represent mean ± SEM of three to five independent experiments (except for OCN, wash; n = 2). For insulin release assays, data represent the mean ± SEM of three independent experiments (except for islet studies; n = 2). Insulin release data were normalised to the response to vehicle in either low or high [glucose]. Statistical analysis for GLP-1 release data were performed by one-way ANOVA, followed by Sidak’s multiple comparisons test (treating wash / no wash datasets separately). Statistical analyses for insulin release data were performed by two-way ANOVA (with [glucose] and drug treatment as group variables), followed by Sidak’s multiple comparisons test. Where only high [glucose] groups were evaluated, statistical analysis was by one-way ANOVA followed by Sidak’s multiple comparisons test.

β-TC6 cells = assay: Insulin release from β-TC6 cells; type: cell-based, murine; conditions: P < 0.001, P < 0.0001, two-way ANOVA, S3 Fig A
Experimental: as §2, §3

mouse pancreatic islets = assay: Insulin release from mouse pancreatic islets; type: cell-based; conditions: n = 2; P < 0.001, P < 0.0001; S3 Fig B
Experimental: Islets were collagenase-isolated from mice (10 x C57Bl/6; 12–13 weeks; Charles River) and incubated overnight in RPMI (with 10% FBS (v/v), 10 mM HEPES, 100 U/ml penicillin, 100 μg/ml streptomycin, sodium pyruvate and 10 mM glucose) at 37°C in 5% CO2. Islets were seeded into a 96-well plate (4 / well) in Kreb’s buffer containing 2.8 mM glucose and washed twice with the same buffer. 200 μl test drugs were added in Kreb’s buffer with the required concentration of glucose and incubated at 37°C in 5% CO2 for 90 min. The plate was centrifuged for 10 s at 200 g, supernatant recovered and insulin levels detected as described above. This protocol was approved by the IDRS (Institut de Recherches Servier) Institutional Animal Care and Use Committee.
as §3

mGPRC6A (mouse GPRC6A) = molecular target: T1, mGPRC6A (mouse GPRC6A) (Mus musculus, UniProt Q8K4Z6); assay: Label-free cell impedance (xCELLigence), tetracycline-induced FlpIn-TREx-HEK293-mGPRC6A cells; type: cell-based; conditions: tetracycline-induced; xCELLigence; Fig 4
T1 sequence (Q8K4Z6 21-928): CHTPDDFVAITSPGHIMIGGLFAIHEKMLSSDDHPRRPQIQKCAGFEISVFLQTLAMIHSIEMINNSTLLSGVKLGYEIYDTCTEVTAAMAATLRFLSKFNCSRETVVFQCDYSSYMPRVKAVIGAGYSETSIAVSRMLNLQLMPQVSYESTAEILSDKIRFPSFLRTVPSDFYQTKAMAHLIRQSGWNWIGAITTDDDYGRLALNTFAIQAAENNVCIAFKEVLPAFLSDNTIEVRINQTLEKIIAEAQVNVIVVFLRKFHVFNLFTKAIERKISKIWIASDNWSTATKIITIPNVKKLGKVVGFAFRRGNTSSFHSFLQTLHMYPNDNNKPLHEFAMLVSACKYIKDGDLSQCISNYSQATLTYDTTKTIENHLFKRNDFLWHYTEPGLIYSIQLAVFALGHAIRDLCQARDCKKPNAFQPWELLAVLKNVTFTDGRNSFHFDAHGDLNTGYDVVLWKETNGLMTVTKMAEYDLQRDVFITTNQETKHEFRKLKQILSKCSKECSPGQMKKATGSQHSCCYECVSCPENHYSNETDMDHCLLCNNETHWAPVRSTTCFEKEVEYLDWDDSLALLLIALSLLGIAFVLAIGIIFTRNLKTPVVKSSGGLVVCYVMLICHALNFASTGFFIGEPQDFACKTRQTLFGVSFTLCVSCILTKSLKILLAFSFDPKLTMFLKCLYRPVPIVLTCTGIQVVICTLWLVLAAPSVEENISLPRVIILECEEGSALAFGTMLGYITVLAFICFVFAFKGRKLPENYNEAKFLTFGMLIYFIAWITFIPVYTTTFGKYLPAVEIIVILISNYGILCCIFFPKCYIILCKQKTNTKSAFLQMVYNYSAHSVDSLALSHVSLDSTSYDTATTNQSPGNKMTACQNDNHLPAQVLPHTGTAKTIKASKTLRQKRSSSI
Experimental: (§4) 2.5 x 10^7 FlpIn-TREx-HEK293-mGPRC6A cells were seeded in a T175 flask and incubated overnight at 37°C in 5% CO2. Cells were then transfected with 35 μg of plasmid DNA (GαqG66D) with Lipofectamine LTX according to manufacturer's instructions, then incubated for 24h at 37°C in 5% CO2. Prior to the experiment, a background reading for each E-plate 96 (Bio-Rad, CA, USA) was measured after addition of 100 μl DMEM + 10% FBS per well. Cells were recovered using Versene and seeded at a 10^5 cells/well density in 200 μl DMEM + 10% FBS (containing 1 μg/ml tetracycline where indicated). Cells were washed 2 x 2 h in HBSS buffer (pH 7.2) containing 20 mM HEPES, 1 mM CaCl2 and 0.1% BSA (w/v) in a total volume of 180 μl. Test compounds (20 μl at 10x final concentration) were added to the plate and cell impedance was monitored for 3 h. Cell index was normalised to the buffer response (minus the baseline response at zero time point).
as §3

[1] = test system: un-induced FlpIn-TREx-HEK293-mGPRC6A cells; assay: Label-free cell impedance, un-induced FlpIn-TREx-HEK293-mGPRC6A cells; type: cell-based; conditions: Fig 4
Experimental: as §4

INS-1(832) cells = assay: Label-free cell impedance, INS-1(832) cells; type: cell-based, rat; conditions: Gprc6a-negative, EBSS, 2.8 mM glucose, Fig 7, two-way ANOVA, *P < 0.05, **P < 0.01 vs Vehicle
Experimental: For INS-1 cells, 100 μl of medium (RPMI 1640 no glucose, 10% FBS, 55 μM β-mercaptoethanol, 1 mM sodium pyruvate, 10 mM HEPES, 100 U/ml penicillin, 100 μg/ml streptomycin, 11.1 mM glucose) was added per well to an E-plate 96 and a background reading taken. Cells were seeded at 2 x 10^4 / well and the plates incubated in the instrument for 48 h. On the day of the experiment, media was changed to EBSS buffer (180 μl; 2.8 mM glucose, 1.8 mM CaCl2, 5.3 mM KCl, 0.8 mM MgSO4, 117 mM NaCl, 26 mM NaHCO3, 1 mM NaH2PO4). After 2 h incubation, cells were stimulated with 20 μl test compound (10 x final) prepared in the same buffer. Data capture and analysis were as for HEK293 cells.

Question: With [Cl-].[Cl-].[Zn+2] [ZnCl2] as the compound, how does the pERK1/2 response (22RV1 / PC-3) read?
Answer: pERK1/2 – response to Ca^2+, ZnCl2, OCN, Arginine, Testosterone-BSA Proliferation – response to Ca^2+, OCN PSA, Runx2 expression – response to OCN, Arg, R1881 Chemotaxis (22RV1) – response to Ca^2+, OCN

Question: And the pERK1/2 response (hC6A)?
Answer: pERK1/2 – response to Ca^2+, ZnCl2, OCN, Arginine, Testosterone-BSA

Question: For OC[C@H]1OC(O)[C@H](O)[C@@H](O)[C@@H]1O (stereo partly drawn) [glucose], which “insulin secretion, glucose effect” value (MIN6 cells) is on record?
Answer: significantly promoted insulin secretion; also recorded: significantly enhanced insulin secretion

Question: What about the “insulin secretion, glucose effect” value (β-TC6 cells) of the same compound?
Answer: released insulin in a glucose-sensitive manner

Question: What about the “insulin secretion, glucose effect” value (β-TC6 cells; listed as Glucose) of the same compound?
Answer: significantly enhanced insulin secretion

Question: What about the “insulin secretion, glucose effect” value (mouse pancreatic islets) of the same compound?
Answer: released insulin in a glucose-sensitive manner; also recorded: significantly enhanced insulin secretion

Question: For Nc1ncnc2c1ncn2[C@@H]1O[C@H](COP(=O)(O)OP(=O)(O)OP(=O)(O)O)[C@@H](O)[C@H]1O [ATP], which “cell impedance (cell index) response” value (mGPRC6A (mouse GPRC6A)) is on record?
Answer: concentration-dependent increase in cell index; also recorded: increases cellular impedance

Question: And the “cell impedance (cell index) response” value [1]?
Answer: concentration-dependent increase in cell index; also recorded: increases cellular impedance

Question: For “Bovine OCN: Purified bovine osteocalcin from bone (Meridian Life Science), carboxylated / under-carboxylated (YLDHWLGAPAPYPDPLEPKREVCELNPDCDELADHIGFQEAYRRFYGPV; ends and bridges not checked; also: γ-carboxyglutamic acid residues, partially carboxylated)”, which “cell impedance (cell index) response” value (mGPRC6A (mouse GPRC6A)) is on record?
Answer: did not change cell impedance

Question: And the “cell impedance (cell index) response” value [1]?
Answer: did not change cell impedance

Question: What about the “change in cell impedance (cell index)” value (INS-1(832) cells) of the same compound?
Answer: significant, concentration-dependent activity

Question: And the “change in cell impedance (cell index)” value (INS-1(832) cells; listed as purified bovine OCN)?
Answer: significant changes in cell impedance; also recorded: Concentration-dependent increases in cell index

From paper PMC4718634, “Murine GPRC6A Mediates Cellular Responses to L-Amino Acids, but Not Osteocalcin Variants” (PLoS ONE, 2016)
